One data set has as its target CYP2D6 (Homo sapiens, UniProt P10635). The data set is described as follows: in vitro.
The species entered for data set [1] is Homo sapiens. The experiment in a line: Selectivity ratio of Ki for human mu opioid receptor over Ki for human delta opioid receptor.
For another data set, the target named is T1, CYP2B6 (Homo sapiens, UniProt P20813).
T1 sequence (P20813 whole entry): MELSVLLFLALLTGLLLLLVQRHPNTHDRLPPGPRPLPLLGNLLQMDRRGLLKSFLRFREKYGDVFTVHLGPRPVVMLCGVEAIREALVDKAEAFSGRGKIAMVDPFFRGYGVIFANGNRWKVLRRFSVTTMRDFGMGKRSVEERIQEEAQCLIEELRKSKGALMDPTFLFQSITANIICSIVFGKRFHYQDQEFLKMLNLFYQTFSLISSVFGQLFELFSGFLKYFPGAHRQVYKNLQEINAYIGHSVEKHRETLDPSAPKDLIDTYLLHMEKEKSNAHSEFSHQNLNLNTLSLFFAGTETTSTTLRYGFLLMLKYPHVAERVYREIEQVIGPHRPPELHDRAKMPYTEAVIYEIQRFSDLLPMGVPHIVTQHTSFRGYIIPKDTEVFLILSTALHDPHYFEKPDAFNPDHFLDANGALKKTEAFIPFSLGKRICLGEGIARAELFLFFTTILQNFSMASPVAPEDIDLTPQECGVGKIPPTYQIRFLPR
The experiment in a line: Inhibition of CYP2B6 at 10 uM. Type of data set: ADME.

Data set [2] has as its target T2, Kappa-type opioid receptor (Homo sapiens, UniProt P41145). The experiment in a line: Agonist activity at human kappa opioid receptorR by [35S]GTPgammaS binding assay. Type of data set: functional.
Data set [3] relates to Rattus norvegicus. The data set is described as follows: Inhibition of self alcohol consumption in rat at 2 mg/kg using operant techniques. Type of data set: functional.
Data set [4] deals with T2, Kappa-type opioid receptor. The experiment in a line: Displacement of [3H]U69593 from human kappa opioid receptor expressed in CHO cells. The data set is classed as cell-based.
In data set [5] the target is T3, Delta-type opioid receptor (Homo sapiens, UniProt P41143). The experiment in a line: Agonist activity at human delta opioid receptorR by [35S]GTPgammaS binding assay. The data set is classed as functional.
Data set [6] deals with T4, Mu-type opioid receptor (Homo sapiens, UniProt P35372).
Description: Activity at human mu opioid receptor by [35S]GTPgammaS binding assay
In data set [7] the target is T4, Mu-type opioid receptor. The experiment in a line: Displacement of [3H]DAMGO from human mu opioid receptor expressed in CHO cells. Type of data set: cell-based.
In a further data set the target is CYP3A4 (Homo sapiens, UniProt P08684). The data set is described as follows: Inhibition of CYP3A4 at 10 uM. Type of data set: ADME.
For data set [8], the species on record is Homo sapiens. The data set is described as follows: Selectivity ratio of Ki for human mu opioid receptor over Ki for human kappa opioid receptor.
Data set [9] deals with T3, Delta-type opioid receptor. The data set is described as follows: biochemical.
Description: Displacement of [3H]DPDPE from human delta opioid receptor expressed in CHO cells
A further data set addresses CYP2C19 (Homo sapiens, UniProt P33261). The data set is described as follows: Inhibition of CYP2C19 at 10 uM. The data set is classed as ADME.
The test system of data set [10] is Rattus norvegicus. The experiment in a line: Inhibition of self alcohol consumption in rat at 1.5 mg/kg using operant techniques. Type of data set: functional.
In another data set the target is CYP2C9 (Homo sapiens, UniProt P11712). The experiment in a line: Inhibition of CYP2C9 at 10 uM. The data set is classed as ADME.
Data set [11] has as its system Rattus norvegicus. The data set is described as follows: Inhibition of self alcohol consumption in rat at 0.025 mg/kg using operant techniques. Type of data set: functional.
A short description of data set [12]: Metabolic stability assessed as half life in human liver S9 fraction at 40 uM. Type of data set: ADME, subcellular.

Activity calls are given as the source filed them. No cut-off for these calls is given here.

T2 sequence (P41145 whole entry): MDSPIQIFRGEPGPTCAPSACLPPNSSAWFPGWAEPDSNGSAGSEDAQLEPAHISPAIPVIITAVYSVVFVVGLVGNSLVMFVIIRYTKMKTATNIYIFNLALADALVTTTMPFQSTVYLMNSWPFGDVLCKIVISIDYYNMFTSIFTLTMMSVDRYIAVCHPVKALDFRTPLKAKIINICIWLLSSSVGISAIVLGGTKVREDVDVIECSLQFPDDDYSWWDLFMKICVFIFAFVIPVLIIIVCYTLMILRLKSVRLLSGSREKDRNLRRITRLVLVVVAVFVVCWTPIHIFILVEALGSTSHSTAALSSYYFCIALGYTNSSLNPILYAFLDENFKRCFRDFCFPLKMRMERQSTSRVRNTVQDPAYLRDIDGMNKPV
CYP3A4, sequence (P08684 whole entry): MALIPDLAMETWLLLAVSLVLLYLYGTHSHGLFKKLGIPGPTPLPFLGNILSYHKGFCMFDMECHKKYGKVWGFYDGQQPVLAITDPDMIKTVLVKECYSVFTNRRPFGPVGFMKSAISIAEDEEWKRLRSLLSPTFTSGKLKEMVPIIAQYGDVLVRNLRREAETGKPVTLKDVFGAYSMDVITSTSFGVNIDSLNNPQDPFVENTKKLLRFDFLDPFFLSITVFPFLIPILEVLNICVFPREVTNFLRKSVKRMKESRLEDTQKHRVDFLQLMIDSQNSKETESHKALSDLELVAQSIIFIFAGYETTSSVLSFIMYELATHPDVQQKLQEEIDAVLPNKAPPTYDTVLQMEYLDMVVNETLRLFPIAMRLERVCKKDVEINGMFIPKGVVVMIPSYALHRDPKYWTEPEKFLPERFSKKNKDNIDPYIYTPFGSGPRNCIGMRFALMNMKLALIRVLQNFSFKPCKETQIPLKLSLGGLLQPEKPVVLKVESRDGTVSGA
CYP2C19, sequence (P33261 whole entry): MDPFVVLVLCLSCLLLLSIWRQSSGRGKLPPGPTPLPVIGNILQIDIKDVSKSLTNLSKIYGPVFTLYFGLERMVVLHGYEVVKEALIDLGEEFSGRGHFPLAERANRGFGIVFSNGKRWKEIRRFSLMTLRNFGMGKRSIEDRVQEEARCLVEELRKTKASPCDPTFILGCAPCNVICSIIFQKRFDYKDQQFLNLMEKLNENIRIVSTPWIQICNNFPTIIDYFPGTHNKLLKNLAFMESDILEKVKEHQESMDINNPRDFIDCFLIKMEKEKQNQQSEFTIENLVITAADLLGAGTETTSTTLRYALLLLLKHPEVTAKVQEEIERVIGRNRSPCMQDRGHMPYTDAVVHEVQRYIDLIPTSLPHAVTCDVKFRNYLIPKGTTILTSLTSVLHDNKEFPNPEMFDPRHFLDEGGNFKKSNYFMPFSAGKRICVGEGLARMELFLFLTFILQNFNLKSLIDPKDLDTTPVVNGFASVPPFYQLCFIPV
T4 sequence (P35372 whole entry): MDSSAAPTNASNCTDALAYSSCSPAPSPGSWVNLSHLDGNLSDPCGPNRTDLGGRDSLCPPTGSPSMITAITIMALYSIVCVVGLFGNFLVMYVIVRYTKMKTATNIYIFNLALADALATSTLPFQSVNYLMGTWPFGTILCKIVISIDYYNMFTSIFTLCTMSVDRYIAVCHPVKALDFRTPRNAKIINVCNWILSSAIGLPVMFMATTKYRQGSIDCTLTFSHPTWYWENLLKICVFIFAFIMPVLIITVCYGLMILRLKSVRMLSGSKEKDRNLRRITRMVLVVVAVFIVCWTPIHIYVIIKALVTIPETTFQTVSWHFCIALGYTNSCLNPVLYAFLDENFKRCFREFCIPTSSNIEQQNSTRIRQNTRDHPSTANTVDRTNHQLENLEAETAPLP
T3 sequence (P41143 whole entry): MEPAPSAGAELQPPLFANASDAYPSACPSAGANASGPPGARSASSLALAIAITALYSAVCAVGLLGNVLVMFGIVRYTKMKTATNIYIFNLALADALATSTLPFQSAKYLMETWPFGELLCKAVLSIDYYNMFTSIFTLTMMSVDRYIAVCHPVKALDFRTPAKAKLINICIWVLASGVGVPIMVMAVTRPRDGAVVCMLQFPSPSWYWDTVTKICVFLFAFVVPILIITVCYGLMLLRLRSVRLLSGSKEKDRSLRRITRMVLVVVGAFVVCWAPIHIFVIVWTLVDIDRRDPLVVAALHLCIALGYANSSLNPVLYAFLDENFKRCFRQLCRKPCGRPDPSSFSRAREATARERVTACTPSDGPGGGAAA
CYP2C9, sequence (P11712 whole entry): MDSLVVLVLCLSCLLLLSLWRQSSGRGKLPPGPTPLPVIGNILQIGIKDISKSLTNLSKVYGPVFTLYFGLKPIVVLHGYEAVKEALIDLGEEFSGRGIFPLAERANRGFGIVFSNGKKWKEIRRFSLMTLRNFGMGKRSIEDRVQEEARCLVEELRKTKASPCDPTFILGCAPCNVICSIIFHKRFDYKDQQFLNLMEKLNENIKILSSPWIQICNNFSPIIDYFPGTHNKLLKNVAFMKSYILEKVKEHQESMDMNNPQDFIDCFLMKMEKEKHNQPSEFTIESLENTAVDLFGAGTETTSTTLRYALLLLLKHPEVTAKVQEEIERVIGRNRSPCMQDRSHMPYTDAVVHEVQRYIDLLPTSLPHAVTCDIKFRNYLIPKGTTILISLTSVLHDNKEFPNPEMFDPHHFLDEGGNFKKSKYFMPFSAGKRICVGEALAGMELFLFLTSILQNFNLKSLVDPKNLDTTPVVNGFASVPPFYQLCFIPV
CYP2D6, sequence (P10635 whole entry): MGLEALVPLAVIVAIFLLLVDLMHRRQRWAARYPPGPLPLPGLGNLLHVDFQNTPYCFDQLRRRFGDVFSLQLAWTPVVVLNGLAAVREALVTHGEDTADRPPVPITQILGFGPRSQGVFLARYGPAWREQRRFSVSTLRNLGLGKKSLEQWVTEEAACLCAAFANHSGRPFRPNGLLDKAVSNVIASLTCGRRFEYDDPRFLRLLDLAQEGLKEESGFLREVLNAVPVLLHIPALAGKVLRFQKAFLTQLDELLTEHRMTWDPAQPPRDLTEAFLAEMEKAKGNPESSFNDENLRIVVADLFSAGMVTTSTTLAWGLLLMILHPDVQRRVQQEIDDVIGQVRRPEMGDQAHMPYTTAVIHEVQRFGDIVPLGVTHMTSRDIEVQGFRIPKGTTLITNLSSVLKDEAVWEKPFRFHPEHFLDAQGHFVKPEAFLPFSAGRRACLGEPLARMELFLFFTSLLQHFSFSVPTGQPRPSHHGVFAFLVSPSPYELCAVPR
Description for CYP2D6: Inhibition of CYP2D6 at 10 uM

On to `COc1cccc(C(=O)N[C@@H]2CC[C@@]3(O)[C@H]4Cc5ccc(O)c6c5[C@@]3(CCN4CC3CC3)[C@H]2O6)c1`, for which the inhibition at 10 µM against CYP2D6 stood at 31.2%; against CYP2B6, 49.3%; against CYP3A4, 44.9%; on CYP2C19, 47.1%. In addition, the Ratio Ki in the data set filed under Homo sapiens [1] came to 32; in the data set listed under Homo sapiens [8], 2. The result in [2] and in [5] was Active. Testing at 2 mg/kg in the data set on Rattus norvegicus [3] gave an inhibition in vivo of 75%. The Ki is 0.24 nM in data set [4], 0.12 nM on Mu-type opioid receptor [7] and 3.8 nM in [9]. For the same compound, the Ke on Mu-type opioid receptor [6] is 0.17 nM.

On to `CN(C)c1cccc(C(=O)NC2CC[C@@]3(O)[C@H]4Cc5ccc(O)c6c5[C@@]3(CCN4CC3CC3)[C@H]2O6)c1` (stereo partly specified), for which the inhibition at 10 µM at CYP2D6 came out at 23.5%; against CYP2C9, 23.1%; at CYP3A4, 39.9%; on CYP2C19 it was 70%. The compound further came in with an inhibition in vivo at 1.5 mg/kg with Rattus norvegicus [10] of 17%. Also, the Ratio Ki in the data set filed under Homo sapiens [1] was found to be 7.08; in the data set filed under Homo sapiens [8], 1.42. The result in data set [2] and in [5] was Active. Also, the Ki in [4] was 1.7 nM; on Mu-type opioid receptor [7] it was 1.2 nM; in [9], 8.5 nM. For the same compound, the Ke at Mu-type opioid receptor [6] was 0.14 nM.

Consider `O=C(N[C@@H]1CC[C@@]2(O)[C@H]3Cc4ccc(O)c5c4[C@@]2(CCN3CC2CC2)[C@H]1O5)c1ccc(Cl)c(Cl)c1`, for which the inhibition at 10 µM against CYP2C9 worked out at 32.3%; at CYP3A4, 35.5%; against CYP2C19, 48.3%. In the data set on Rattus norvegicus [11], this compound had an inhibition in vivo at 0.025 mg/kg of 77%. Also, in data set [12], the half-life at 40 µM was 5.77 h.

Values taken from ChEMBL document CHEMBL1142345, “Synthesis and biological evaluation of alpha- and beta-6-amido derivatives of 17-cyclopropylmethyl-3, 14beta-dihydroxy-4, 5alpha-epoxymorphinan: potential alcohol-cessation agents” (J Med Chem, 2008).
